How the values were obtained:
BT-549 = test: NCI-60 single-dose screen; type: cell-based, human; conditions: BT-549, 10^–5 M
Description: (§1) In the next step, all synthesized compounds were electronically submitted and accepted for testing to the National Cancer Institute (NCI) platform, for the single dose (10^−5 M) screening against a panel of 60 human tumor cell lines, representing leukemia, melanoma, and cancers of the lung, colon, central nervous system, ovary, kidney, prostate, and breast. The results are summarized in Table 2, with the best values highlighted in red (Figures S1–S14).

EKVX = test: NCI-60 single-dose screen; type: cell-based, human; conditions: Homo sapiens, 10^–5 M, read-out: GI (%)
Description: as §1

HOP-62 = test: NCI-60 single-dose screen; type: cell-based, human; conditions: HOP-62, 10^–5 M
Description: as §1

MDA-MB-468 = test: NCI-60 single-dose screen; type: cell-based, human; conditions: MDA-MB-468, 10^–5 M
Description: as §1

NCI-H226 = test: NCI-60 single-dose screen; type: cell-based, human; conditions: NCI-H226, 10^–5 M; for inhibition at 10 µM: Homo sapiens, read-out: GI (%)
Description: as §1

SF-295 = test: NCI-60 single-dose screen; type: cell-based, human; conditions: SF-295, 10^–5 M
Description: as §1

U251 [1] = test: NCI-60 single-dose screen; type: cell-based, human; conditions: U251, 10^–5 M
Description: as §1

UO-31 = test: NCI-60 single-dose screen; type: cell-based, human; conditions: UO-31, 10^–5 M
Description: as §1

A498 = test: NCI-60 single-dose screen; type: cell-based; conditions: Homo sapiens; A498, 10^–5 M; read-out: GI (%)
In short: (§2)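 Human tumor cells, 60-line NCI panel; compound dosed only at 10^−5 M.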

DU-145 = test: NCI-60 single-dose screen; type: cell-based; conditions: Homo sapiens; DU-145, 10^–5 M; read-out: GI (%)
In short: as §2

HCC-2998 = test: NCI-60 single-dose screen; type: cell-based; conditions: Homo sapiens; HCC-2998, 10^–5 M; read-out: GI (%)
In short: as §2

MALME-3M = test: NCI-60 single-dose screen; type: cell-based; conditions: Homo sapiens, 10^–5 M, read-out: GI (%)
In short: as §2

MCF7 = test: NCI-60 single-dose screen; type: cell-based; conditions: Homo sapiens; MCF7, 10^–5 M; read-out: GI (%)
In short: as §2

MDA-MB-435 = test: NCI-60 single-dose screen; type: cell-based; conditions: Homo sapiens; MDA-MB-435, 10^–5 M; read-out: GI (%)
In short: as §2

MOLT-4 = test: NCI-60 single-dose screen; type: cell-based; conditions: Homo sapiens; MOLT-4, 10^–5 M; read-out: GI (%)
In short: as §2

SF-268 = test: NCI-60 single-dose screen; type: cell-based; conditions: Homo sapiens; SF-268, 10^–5 M; read-out: GI (%)
In short: as §2

SK-MEL-28 = test: NCI-60 single-dose screen; type: cell-based; conditions: Homo sapiens; SK-MEL-28, 10^–5 M; read-out: GI (%)
In short: as §2

SK-MEL-2 = test: NCI-60 single-dose screen; type: cell-based; conditions: Homo sapiens; SK-MEL-2, 10^–5 M; read-out: GI (%)
In short: as §2

SN12C = test: NCI-60 single-dose screen; type: cell-based; conditions: Homo sapiens, 10^–5 M, read-out: GI (%)
In short: as §2

SW-620 [2] = test: NCI-60 single-dose screen; type: cell-based; conditions: Homo sapiens; SW-620, 10^–5 M; read-out: GI (%)
In short: as §2

TK-10 = test: NCI-60 single-dose screen; type: cell-based; conditions: Homo sapiens; TK-10, 10^–5 M; read-out: GI (%)
In short: as §2

LN-229 = test: CellTiter-Glo 2.0 cytotoxicity, glioblastoma; type: cell-based, human; conditions: LN-229, 24 h
Protocol: (§3) Cytotoxicity of compounds was assessed using the CellTiter-Glo® 2.0 Assay (Promega, Madison, WI, USA) on human gingival fibroblasts (HGF), osteosarcoma (HOS and MG-63) and glioblastoma (LN-229 and U-118MG) cells, according to the manufacturer’s instructions. HGF, HOS, MG-63 and U-118MG cells were purchased from Cytion GmbH, Eppelheim, Germany, and LN-229 (CRL-2611) from the American Type Culture Collection (ATCC), Manassas, VA, USA. Cells were seeded (50,000 cells/mL—HGF, 100,000 cells/mL—tumor cells) into 96-well opaque white tissue culture-treated plates and allowed to adhere overnight in αMEM medium with 10% fetal bovine serum and 1% antibiotic-antimycotic (all from PAN—Biotech GmbH, Aidenbach, Germany). Cells were incubated with compounds (10 or 50 µM) for 24 h, then CellTiter-Glo® reagent was added and luminescence was recorded using a FLUOstar® Omega microplate reader (BMG LABTECH, Ortenberg, Germany). The experiments were carried out in triplicate, and the viability of treated cells was expressed as a percentage of the viability of control cells (untreated). Data were represented as means ± standard deviations. Stock solutions of compounds were prepared in DMSO, then diluted in complete cell culture media. […] Data were analyzed with independent two-tailed (Student’s) t-test, considering p < 0.05 statistically significant.

U-118MG = test: CellTiter-Glo 2.0 cytotoxicity, glioblastoma; type: cell-based, human; conditions: 50 µM, 24 h
Protocol: as §3

HT29 = test: NCI-60 5-dose screen; type: cell-based, human; conditions: for GI50 / CC50: Homo sapiens; for GI50: HT-29; for CC50: HT-29, read-out: LC50 (the source's name)
SW-620 [3] = test: NCI-60 5-dose screen; type: cell-based, human; conditions: for GI50 / CC50: Homo sapiens; for CC50: read-out: LC50 (the source's name)
U251 [4] = test: NCI-60 5-dose screen; type: cell-based, human; conditions: for GI50 / LC50 (50% lethal concentration): Homo sapiens, U-251
OVCAR-4 = test: NCI-60 5-dose screen; type: cell-based, human; conditions: for GI50 / CC50: Homo sapiens; for CC50: read-out: LC50 (the source's name)
CAKI-1 = test: NCI-60 5-dose screen; type: cell-based, human; conditions: for GI50 / CC50: Homo sapiens; for CC50: read-out: LC50 (the source's name)
HS 578T = test: NCI-60 5-dose screen; type: cell-based, human; conditions: for GI50 / CC50: Homo sapiens; for CC50: read-out: LC50 (the source's name)
PC-3 = test: NCI-60 5-dose screen; type: cell-based, human; conditions: for GI50 / CC50: Homo sapiens; for CC50: read-out: LC50 (the source's name)

SMILES: O=C1C(Nc2ccc(I)cc2)=CC(c2ccc(O)c(O)c2)N1c1ccc(I)cc1 (stereo not shown) [3h]
- GI (%) (BT-549): 81%
- inhibition at 10 µM (EKVX): 22%
- GI (%) (HOP-62): 82%
- GI (%) (MDA-MB-468): 100 ^h1%
- inhibition at 10 µM (NCI-H226): 35%
- GI (%) (SF-295): 56%
- GI (%) (U251 [1]): 58%
- GI (%) (UO-31): 54%
- inhibition at 10 µM (A498): 61%
- inhibition at 10 µM (DU-145): 40%
- inhibition at 10 µM (HCC-2998): 98%
- inhibition at 10 µM (MALME-3M): 100%
- inhibition at 10 µM (MCF7): 91%
- inhibition at 10 µM (MDA-MB-435): 73%
- inhibition at 10 µM (MOLT-4): 100%
- inhibition at 10 µM (SF-268): 82%
- inhibition at 10 µM (SK-MEL-28): 75%
- inhibition at 10 µM (SK-MEL-2): 100%
- inhibition at 10 µM (SN12C): 100%
- inhibition at 10 µM (SW-620 [2]): 100%
- inhibition at 10 µM (TK-10): 50%
- cytotoxicity (activity in words) (LN-229): ineffective
- cytotoxicity (activity in words) (U-118MG): moderate activity
- TGI (HT29): >100 µM
- GI50 (HT29): 8.8 µM
- CC50 (HT29): > 100 µM
- TGI (SW-620 [3]): >100 µM
- GI50 (SW-620 [3]): > 100 µM
- CC50 (SW-620 [3]): > 100 µM
- TGI (U251 [4]): >100 µM
- GI50 (U251 [4]): > 100 µM
- LC50 (50% lethal concentration) (U251 [4]): > 100 µM
- TGI (OVCAR-4): >100 µM
- GI50 (OVCAR-4): 3.27 µM
- CC50 (OVCAR-4): > 100 µM
- TGI (CAKI-1): >100 µM
- GI50 (CAKI-1): > 100 µM
- CC50 (CAKI-1): > 100 µM
- TGI (HS 578T): >100 µM
- GI50 (HS 578T): 6.65 µM
- CC50 (HS 578T): > 100 µM
- TGI (PC-3): >100 µM
- GI50 (PC-3): 8.83 µM
- CC50 (PC-3): > 100 µM

SMILES: COc1cc(OC)c(C2C=C(Nc3ccc(I)cc3)C(=O)N2c2ccc(I)cc2)cc1OC (stereo not shown) [3k]
- GI (%) (BT-549): 10%
- inhibition at 10 µM (EKVX): 0%
- GI (%) (HOP-62): 0%
- GI (%) (MDA-MB-468): 44%
- inhibition at 10 µM (NCI-H226): 0%
- GI (%) (SF-295): 2%
- GI (%) (U251 [1]): 0%
- GI (%) (UO-31): 0%
- inhibition at 10 µM (A498): 0%
- inhibition at 10 µM (DU-145): 0%
- inhibition at 10 µM (HCC-2998): 5%
- inhibition at 10 µM (MALME-3M): 0%
- inhibition at 10 µM (MCF7): 23%
- inhibition at 10 µM (MDA-MB-435): 0%
- inhibition at 10 µM (MOLT-4): 0%
- inhibition at 10 µM (SF-268): 1%
- inhibition at 10 µM (SK-MEL-28): 0%
- inhibition at 10 µM (SK-MEL-2): 0%
- inhibition at 10 µM (SN12C): 2%
- inhibition at 10 µM (SW-620 [2]): 0%
- inhibition at 10 µM (TK-10): 1%
- cytotoxicity (activity in words) (LN-229): ineffective
- cytotoxicity (activity in words) (U-118MG): moderate activity

SMILES: N#Cc1ccc(C2C=C(Nc3ccc(I)cc3)C(=O)N2c2ccc(I)cc2)cc1 (stereo not shown) [3l]
- inhibition at 10 µM (EKVX): 100%
- inhibition at 10 µM (NCI-H226): 100%
- GI (%) (NCI-H226): 100 ^i1%
- inhibition at 10 µM (A498): 88%
- inhibition at 10 µM (DU-145): 37%
- inhibition at 10 µM (HCC-2998): 50%
- inhibition at 10 µM (MALME-3M): 46%
- inhibition at 10 µM (MCF7): 52%
- inhibition at 10 µM (MDA-MB-435): 19%
- inhibition at 10 µM (MOLT-4): 78%
- inhibition at 10 µM (SF-268): 93%
- inhibition at 10 µM (SK-MEL-28): 29%
- inhibition at 10 µM (SK-MEL-2): 100%
- inhibition at 10 µM (SN12C): 59%
- inhibition at 10 µM (SW-620 [2]): 50%
- inhibition at 10 µM (TK-10): 99%
- cytotoxicity (activity in words) (LN-229): ineffective
- cytotoxicity (activity in words) (U-118MG): moderate activity
- TGI (HT29): >100 µM
- GI50 (HT29): 9.43 µM
- CC50 (HT29): > 100 µM
- TGI (SW-620 [3]): >100 µM
- GI50 (SW-620 [3]): 5.91 µM
- CC50 (SW-620 [3]): > 100 µM
- TGI (U251 [4]): >100 µM
- GI50 (U251 [4]): 4.17 µM
- LC50 (50% lethal concentration) (U251 [4]): > 100 µM
- TGI (OVCAR-4): 1.69 µM
- GI50 (OVCAR-4): 0.422 µM
- CC50 (OVCAR-4): 4.82 µM
- TGI (CAKI-1): >100 µM
- GI50 (CAKI-1): 9.48 µM
- CC50 (CAKI-1): > 100 µM
- TGI (HS 578T): 5.64 µM
- GI50 (HS 578T): 2.1 µM
- CC50 (HS 578T): > 100 µM
- TGI (PC-3): >100 µM
- GI50 (PC-3): 2.4 µM
- CC50 (PC-3): > 100 µM

Source: paper PMC12736255, “Reinvestigating Pyrrol-2-One-Based Compounds: From Antimicrobial Agents to Promising Antitumor Candidates” (Pharmaceuticals, 2025)
